Measured values taken from ChEMBL document CHEMBL3992552, “Mechanisms of action and structure-activity relationships of cytotoxic flavokawain derivatives” (Bioorg Med Chem, 2017).
Activity calls are given as the source filed them. The rule behind the calls is not given here.

Legend:
[1] = system: HaCaT; assay: Cell cycle arrest in human HaCaT cells harboring […] p53 assessed as mitotic index at 10 uM measured after 48 hrs by Hoechst staining based fluorescence assay (reference value: 2.6); assay type: functional
[2] = system: MDA-MB-231; assay: Cell cycle arrest in human MDA-MB-231 cells harboring p53 mutant assessed as mitotic index at 25 uM measured after 48 hrs by Hoechst staining based fluorescence assay (reference value: 2.1); assay type: functional
[3] = system: PC-3; assay: Induction of apoptosis in human PC3 cells harboring p53 mutant assessed as increase in late apoptosis at 2 times IC50 after 48 hrs by YoPro/propidium iodide/Hoechst staining based assay; assay type: functional, cell-based
[4] = system: PC-3; assay: Cell cycle arrest in human PC3 cells harboring p53 mutant assessed as accumulation at S phase at 25 uM measured after 48 hrs by Hoechst/BrdU staining based fluorescence assay (reference value: 40.8%); assay type: functional
[5] = system: Huh-7; assay: Cell cycle arrest in human HuH7 cells assessed as mitotic index at 25 uM measured after 48 hrs by Hoechst staining based fluorescence assay (reference value: 2.2); assay type: functional
[6] = system: Fibroblast; assay: Cytotoxicity against human fibroblasts assessed as cell viability after 48 hrs by Hoechst 33342 staining based assay
[7] = system: HaCaT; assay: Cell cycle arrest in human HaCaT cells harboring […] p53 assessed as accumulation at S phase at 25 uM measured after 48 hrs by Hoechst/BrdU staining based fluorescence assay (reference value: 52.3%); assay type: functional
[8] = system: MDA-MB-231; assay: Cell cycle arrest in human MDA-MB-231 cells harboring p53 mutant assessed as accumulation at S phase at 25 uM measured after 48 hrs by Hoechst/BrdU staining based fluorescence assay (reference value: 42.2%); assay type: functional
[9] = system: HCT-116; assay: Cell cycle arrest in human HCT116 cells assessed as accumulation at G1/S phase by Hoechst staining based fluorescence assay; assay type: functional
[10] = Cytotoxicity against human fibroblasts assessed as cell survival at 50 uM after 48 hrs by Hoechst 33342 staining based assay relative to control; parameters: species or system Fibroblast; conditions: read-out: Survival
[11] = Selectivity index, ratio of IC50 for human fibroblasts to IC50 for human RL cells
[12] = system: HCT-116; assay: Induction of apoptosis in human HCT116 cells harboring wild-type p53 assessed as upregulation of cyclinB1 measured after 48 hrs by Hoechst staining based assay; assay type: functional, cell-based
[13] = system: MCF7; assay: Cytotoxicity against human MCF7 assessed as cell viability after 48 hrs by Hoechst 33342 staining based assay; assay type: functional; conditions: MCF7, 48 h
[14] = system: PC-3; assay: Cell cycle arrest in human PC3 cells harboring p53 mutant assessed as mitotic index at 10 uM measured after 48 hrs by Hoechst staining based fluorescence assay (reference value: 2.5); assay type: functional
[15] = Selectivity index, ratio of IC50 for human fibroblasts to IC50 for human HCT116 cells
[16] = system: NCI-H727; assay: Cell cycle arrest in human NCI-H727 cells assessed as accumulation at G1/S phase by Hoechst staining based fluorescence assay; assay type: functional
[17] = system: MDA-MB-231; assay: Cell cycle arrest in human MDA-MB-231 cells harboring p53 mutant assessed as mitotic index at 10 uM measured after 48 hrs by Hoechst staining based fluorescence assay (reference value: 2.1); assay type: functional
[18] = system: HCT-116; assay: Cell cycle arrest in human HCT116 cells harboring wild-type p53 assessed as mitotic index at 25 uM measured after 48 hrs by Hoechst staining based fluorescence assay (reference value: 2.3); assay type: functional
[19] = system: MCF7; assay: Induction of apoptosis in human MCF7 cells harboring wild-type p53 assessed as increase in early apoptosis at 2 times IC50 after 24 hrs by YoPro/propidium iodide/Hoechst staining based assay; assay type: functional, cell-based
[20] = system: MDA-MB-231; assay: Cell cycle arrest in human MDA-MB-231 cells harboring p53 mutant assessed as accumulation at S phase at 10 uM measured after 48 hrs by Hoechst/BrdU staining based fluorescence assay (reference value: 42.2%); assay type: functional
[21] = system: Caco-2; assay: Cell cycle arrest in human Caco2 cells assessed as mitotic index at 25 uM measured after 48 hrs by Hoechst staining based fluorescence assay (reference value: 3.6); assay type: functional
[22] = system: HCT-116; assay: Induction of apoptosis in human HCT116 cells harboring wild-type p53 assessed as upregulation of p21 measured after 48 hrs by Hoechst staining based fluorescence assay; assay type: functional, cell-based
[23] = system: MCF7; assay: Induction of apoptosis in human MCF7 cells harboring wild-type p53 assessed as upregulation of p21 measured after 48 hrs by Hoechst staining based fluorescence assay; assay type: functional, cell-based
[24] = Selectivity index, ratio of IC50 for human fibroblasts to IC50 for human HaCaT cells
[25] = system: HaCaT; assay: Cytotoxicity against human HaCaT cells assessed as cell survival at 50 uM after 48 hrs by Hoechst 33342 staining based assay relative to control; assay type: functional; conditions: read-out: Survival
[26] = system: HCT-116; assay: Induction of apoptosis in human HCT116 cells harboring wild-type p53 assessed as increase in cleaved caspase3 at 2 times IC50 after 48 hrs by Hoechst staining based assay; assay type: functional, cell-based
[27] = system: RL; assay: Cytotoxicity against human RL assessed as cell viability after 48 hrs by Hoechst 33342 staining based assay; assay type: functional
[28] = system: MDA-MB-231; assay: Induction of apoptosis in human MDA-MB-231 cells harboring p53 mutant assessed as upregulation of cyclinB1 after 18 hrs by Hoechst staining based assay; assay type: functional, cell-based
[29] = Selectivity index, ratio of IC50 for human fibroblasts to IC50 for human PC3 cells
[30] = system: HCT-116; assay: Cytotoxicity against human HCT116 cells assessed as cell survival at 50 uM after 48 hrs by Hoechst 33342 staining based assay relative to control; assay type: functional; conditions: HCT-116, 48 h, read-out: Survival
[31] = system: HCT-116; assay: Cell cycle arrest in human HCT116 cells harboring wild-type p53 assessed as accumulation at S phase at 25 uM measured after 48 hrs by Hoechst/BrdU staining based fluorescence assay (reference value: 68.4%); assay type: functional
[32] = Selectivity index, ratio of IC50 for human fibroblasts to IC50 for human MDA-MB-231 cells
[33] = system: HaCaT; assay: Cell cycle arrest in human HaCaT cells harboring […] p53 assessed as mitotic index at 25 uM measured after 48 hrs by Hoechst staining based fluorescence assay (reference value: 2.6); assay type: functional
[34] = system: HCT-116; assay: Induction of apoptosis in human HCT116 cells harboring wild-type p53 assessed as increase in late apoptosis at 2 times IC50 after 48 hrs by YoPro/propidium iodide/Hoechst staining based assay; assay type: functional, cell-based
[35] = system: Caco-2; assay: Cell cycle arrest in human Caco2 cells assessed as accumulation at M phase by Hoechst staining based fluorescence assay; assay type: functional
[36] = system: PC-3; assay: Cell cycle arrest in human PC3 cells assessed as accumulation at M phase by Hoechst staining based fluorescence assay; assay type: functional
[37] = system: PC-3; assay: Cytotoxicity against human PC3 cells assessed as cell survival at 50 uM after 48 hrs by Hoechst 33342 staining based assay relative to control; assay type: functional; conditions: PC-3, 48 h, read-out: Survival
[38] = system: Caco-2; assay: Cell cycle arrest in human Caco2 cells assessed as accumulation at S phase at 10 uM measured after 48 hrs by Hoechst/BrdU staining based fluorescence assay (reference value: […]); assay type: functional
[39] = system: PC-3; assay: Cell cycle arrest in human PC3 cells harboring p53 mutant assessed as mitotic index at 25 uM measured after 48 hrs by Hoechst staining based fluorescence assay (reference value: 2.5); assay type: functional

Row | Structure (SMILES) | Activity_index [1] | Activity_index [2] | Activity [3] | Activity [4] | Activity_index [5] | IC50 [6] | Activity [7] | Activity [8] | Activity [9] | viability at 48 h, 50 µM [10] | Ratio IC50 [11] | Activity [12] | IC50 [13] | Activity_index [14] | Ratio IC50 [15] | Activity [16] | Activity_index [17] | Activity_index [18] | Activity [19] | Activity [20] | further results
1 | COc1cc(OC)c(C(=O)/C=C/c2ccccc2)c(OC)c1 | 18.3 | 13.2 | Active | 1.7% | 0.6 | > 20 µM | 0.1% | 23% | Active | 74% | >7.2 | Active | 9.4 µM | 18 | >7.2 | Active | 21 | 0.8 | Active | 37% | Activity_index [21]: 13; Activity [22]: Active; Activity [23]: Active; Ratio IC50 [24]: >6.9; viability at 50 µM [25]: 20%; Activity [26]: Active; IC50 [27]: 6.9 µM; Activity [28]: Active; Ratio IC50 [29]: >9.8; viability at 50 µM [30]: 1%; Activity [31]: 2.6%; Ratio IC50 [32]: >3.9; Activity_index [33]: 0.1; Activity [34]: Active; Activity [35]: Active; Activity [36]: Active; viability at 50 µM [37]: 29%; Activity [38]: 38%; Activity_index [39]: 1.2
2 | COc1cccc(/C=C/C(=O)c2c(OC)cc(OC)cc2OC)c1 | 17.5 | 3.5 | Active | 0.9% | 1 | > 20 µM | 0% | 12% | Active | 66% | >8.5 | Active | 9.4 µM | 27.6 | >11.6 | Active | 25 | 1.2 | Active | 43% | Activity_index [21]: 4.8; Activity [22]: Active; Activity [23]: Active; Ratio IC50 [24]: >9.4; viability at 50 µM [25]: 18%; Activity [26]: Active; IC50 [27]: 5.9 µM; Activity [28]: Active; Ratio IC50 [29]: >16.1; viability at 50 µM [30]: 0%; Activity [31]: 0.6%; Ratio IC50 [32]: >5.7; Activity_index [33]: 0.1; Activity [34]: Active; Activity [35]: Active; Activity [36]: Active; viability at 50 µM [37]: 19%; Activity [38]: 31%; Activity_index [39]: 0.3
